Test results from patent US8076487B2, “Pyridone derivative and herbicide” (Kumiai Chemical Industry Co., Ltd., priority 2006, dated 2011).

Tests used:
Format in all cases: in vivo
[1] = system: heartshape false pickerelweed (Monochoria vaginalis (Burm.f.) C.Presl); assay: Test Example 1: herbicidal effect by soil application to paddy field; conditions: paddy field soil application; active ingredient 1,000 g per 1 hectare; wettable powder added dropwise to water surface the day after sowing; examined on the 21st day after application
How it was run: (§1)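 Under greenhouse conditions, seeds sown on puddled paddy soil in 100 cm2 pots under 3 cm of standing water received the test compound; injury was assessed with a standard scoring scheme three weeks (day 21) after treatment.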

[2] = system: early watergrass (Echinochloa oryzicola Vasing); assay: as above; conditions: paddy field soil application; active ingredient 1,000 g per 1 hectare; wettable powder added dropwise to water surface the day after sowing; examined on the 21st day after application
How it was run: as §1

[3] = system: Japanese bulrush (Scirpus juncoides Roxb.); assay: as above; conditions: paddy field soil application; active ingredient 1,000 g per 1 hectare; wettable powder added dropwise to water surface the day after sowing; examined on the 21st day after application
How it was run: as §1

[4] = system: green foxtail (Setaria viridis (L.) P. Beauv.); assay: Test Example 2: herbicidal effect by soil application to upland field; conditions: soil surface spray, upland field soil, 1,000 g active ingredient per hectare, 21st day after application
How it was run: (§2)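 Pre-emergence soil test: seeds sown in pots of field soil, then wettable-powder formulation sprayed on soil surface at 1,000 g active ingredient per hectare in 1,000 L water per hectare. Plants grown in greenhouse; herbicidal effect scored on a standard scale at day 21.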

[5] = system: velvetleaf (Abutilon theophrasti medicus); assay: as above; conditions: soil surface spray, upland field soil, 1,000 g active ingredient per hectare, 21st day after application
How it was run: as §2

[6] = system: slender amaranth (Amaranthus viridis L.); assay: as above; conditions: soil surface spray, upland field soil, 1,000 g active ingredient per hectare, 21st day after application
How it was run: as §2

[7] = system: barnyardgrass (Echinochloa crus-galli (L.) P. Beauv. var. crus-galli); assay: as above; conditions: soil surface spray, upland field soil, 1,000 g active ingredient per hectare, 21st day after application
How it was run: as §2

[8] = system: green foxtail (Setaria viridis (L.) P. Beauv.); assay: Test Example 3: herbicidal effect by application to upland field (foliage treatment); conditions: foliage treatment, plants grown two weeks, 1,000 g active ingredient per hectare, 14th day after application
How it was run: (§3)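 Read-out is a visual herbicidal-effect grade on a standard scale, taken on the 14th day after a single foliar spray. The spray was wettable powder diluted in water, 1,000 g active ingredient/ha at 1,000 L/ha, applied to greenhouse plants two weeks after sowing.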

[9] = system: velvetleaf (Abutilon theophrasti medicus); assay: as above; conditions: foliage treatment, plants grown two weeks, 1,000 g active ingredient per hectare, 14th day after application
How it was run: as §3

[10] = system: slender amaranth (Amaranthus viridis L.); assay: as above; conditions: foliage treatment, plants grown two weeks, 1,000 g active ingredient per hectare, 14th day after application
How it was run: as §3

[11] = system: barnyardgrass (Echinochloa crus-galli (L.) P. Beauv. var. crus-galli); assay: as above; conditions: foliage treatment, plants grown two weeks, 1,000 g active ingredient per hectare, 14th day after application
How it was run: as §3

| SMILES | herbicidal effect, Monochoria vaginalis (Burm. f.) C. Presl [1] | herbicidal effect, Echinochloa oryzicola Vasing [2] | herbicidal effect, Scirpus juncoides Roxb. [3] | herbicidal effect (index), Green Foxtail [4] | herbicidal effect (index), Velvetleaf [5] | herbicidal effect (index), Slender Amaranth [6] | herbicidal effect (index), Barnyardgrass [7] | herbicidal effect (index), Green Foxtail [8] | herbicidal effect (index), Velvetleaf [9] | herbicidal effect (index), Slender Amaranth [10] | herbicidal effect (index), Barnyardgrass [11] |
| --- | --- | --- | --- | --- | --- | --- | --- | --- | --- | --- | --- |
| COCCOCCn1c(C(F)(F)F)ccc(C(=O)C2=C(O)CCCC2=O)c1=O [I-34] | 5 (90% or more of herbicidal effect and crop phytotoxicity) | 5 (90% or more of herbicidal effect and crop phytotoxicity) | 5 (90% or more of herbicidal effect and crop phytotoxicity) | 5 (90% or more of herbicidal effect and crop phytotoxicity) | 5 (90% or more of herbicidal effect and crop phytotoxicity) | 5 (90% or more of herbicidal effect and crop phytotoxicity) | 5 (90% or more of herbicidal effect and crop phytotoxicity) | 5 (90% or more of herbicidal effect and crop phytotoxicity) | 5 (90% or more of herbicidal effect and crop phytotoxicity) | 5 (90% or more of herbicidal effect and crop phytotoxicity) | 5 (90% or more of herbicidal effect and crop phytotoxicity) |
| N#CCCn1c(C(F)(F)F)ccc(C(=O)C2=C(O)CCCC2=O)c1=O [I-44] | 5 (90% or more of herbicidal effect and crop phytotoxicity) | 5 (90% or more of herbicidal effect and crop phytotoxicity) | 5 (90% or more of herbicidal effect and crop phytotoxicity) | 5 (90% or more of herbicidal effect and crop phytotoxicity) | 5 (90% or more of herbicidal effect and crop phytotoxicity) | 5 (90% or more of herbicidal effect and crop phytotoxicity) | 5 (90% or more of herbicidal effect and crop phytotoxicity) | 5 (90% or more of herbicidal effect and crop phytotoxicity) | 5 (90% or more of herbicidal effect and crop phytotoxicity) | 5 (90% or more of herbicidal effect and crop phytotoxicity) | 5 (90% or more of herbicidal effect and crop phytotoxicity) |
| CSCn1c(C(F)(F)F)ccc(C(=O)C2=C(O)CCCC2=O)c1=O [I-46] | 5 (90% or more of herbicidal effect and crop phytotoxicity) | 5 (90% or more of herbicidal effect and crop phytotoxicity) | 5 (90% or more of herbicidal effect and crop phytotoxicity) | 3 (50 to less than 70% of herbicidal effect and crop phytotoxicity) | 5 (90% or more of herbicidal effect and crop phytotoxicity) | 5 (90% or more of herbicidal effect and crop phytotoxicity) | 5 (90% or more of herbicidal effect and crop phytotoxicity) | 3 (50 to less than 70% of herbicidal effect and crop phytotoxicity) | 5 (90% or more of herbicidal effect and crop phytotoxicity) | 5 (90% or more of herbicidal effect and crop phytotoxicity) | 5 (90% or more of herbicidal effect and crop phytotoxicity) |
| CCSCn1c(C(F)(F)F)ccc(C(=O)C2=C(O)CCCC2=O)c1=O [I-48] | 5 (90% or more of herbicidal effect and crop phytotoxicity) | 5 (90% or more of herbicidal effect and crop phytotoxicity) | 5 (90% or more of herbicidal effect and crop phytotoxicity) | 4 (70 to less than 90% of herbicidal effect and crop phytotoxicity) | 5 (90% or more of herbicidal effect and crop phytotoxicity) | 5 (90% or more of herbicidal effect and crop phytotoxicity) | 5 (90% or more of herbicidal effect and crop phytotoxicity) | 5 (90% or more of herbicidal effect and crop phytotoxicity) | 5 (90% or more of herbicidal effect and crop phytotoxicity) | 5 (90% or more of herbicidal effect and crop phytotoxicity) | 5 (90% or more of herbicidal effect and crop phytotoxicity) |
| CCS(=O)(=O)Cn1c(C(F)(F)F)ccc(C(=O)C2=C(O)CCCC2=O)c1=O [I-49] | 5 (90% or more of herbicidal effect and crop phytotoxicity) | 5 (90% or more of herbicidal effect and crop phytotoxicity) | 5 (90% or more of herbicidal effect and crop phytotoxicity) | 4 (70 to less than 90% of herbicidal effect and crop phytotoxicity) | 5 (90% or more of herbicidal effect and crop phytotoxicity) | 5 (90% or more of herbicidal effect and crop phytotoxicity) | 5 (90% or more of herbicidal effect and crop phytotoxicity) | 5 (90% or more of herbicidal effect and crop phytotoxicity) | 5 (90% or more of herbicidal effect and crop phytotoxicity) | 5 (90% or more of herbicidal effect and crop phytotoxicity) | 5 (90% or more of herbicidal effect and crop phytotoxicity) |
| CCCSCn1c(C(F)(F)F)ccc(C(=O)C2=C(O)CCCC2=O)c1=O [I-50] | 5 (90% or more of herbicidal effect and crop phytotoxicity) | 5 (90% or more of herbicidal effect and crop phytotoxicity) | 5 (90% or more of herbicidal effect and crop phytotoxicity) | 5 (90% or more of herbicidal effect and crop phytotoxicity) | 5 (90% or more of herbicidal effect and crop phytotoxicity) | 5 (90% or more of herbicidal effect and crop phytotoxicity) | 5 (90% or more of herbicidal effect and crop phytotoxicity) | 3 (50 to less than 70% of herbicidal effect and crop phytotoxicity) | 5 (90% or more of herbicidal effect and crop phytotoxicity) | 5 (90% or more of herbicidal effect and crop phytotoxicity) | 5 (90% or more of herbicidal effect and crop phytotoxicity) |
